Source: US11667632B2, “2-(1H-indazol-3-yl)-3H-imidazo[4,5-C]pyridines and their anti-inflammatory uses thereof” (BioSplice Therapeutics, Inc., priority 2015, dated 2023)

Assays:
Assay type in all cases: physicochemical
[1] = Dynamic vapor sorption (DVS) scan; conditions: at 90% RH
Text: The purity of the Form 13 sample was 98.8%; the KF of an undried Form 13 sample was 35.7%.

[2] = Competitive slurry experiments between polymorph forms (thermodynamic stability); conditions: water at RT and 50° C.; slurried 3-5 days, XRD
Description: In order to find out the thermodynamic stability between the different forms, several competitive slurry experiments were carried out. Form 1, Form 2, Form 2*, Form 3, Form 4, Form 4*, Form 4**, Form 5, Form 7, Form 8, Form 9, Form 10, Form 11, Form 11*, and Form 13 (10 mg for each) was mixed and slurried in 2 mL of solvent at both RT and 50° C. The solids were slurried for 3-5 days and then analyzed by XRD.
In order to find out the thermodynamic stability between Form 13 and Form 9, several competitive slurry experiments were carried out. 15 mg of Form 1, Form 9 and Form 13 solid were mixed in 1 mL of toluene, IPAc, and n-butyl acetate, and slurried for 3 days at RT and 50° C.
The residual solid was analyzed by XRD.

[3] = Slurry experiments in various solvents (polymorph screen)
Description: Slurry experiments in various solvents were performed. Approximately 30-80 mg of the starting solid (a non-stoichiometric hydrate of Form 1 having between […] and about 20% by weight water) was slurried in 39 different solvents (pure and binary solvents; the ratio of organic solvent/water (V/V) was […]) at RT and 50° C. for 5 days. Three solvates, one non-stoichiometric hydrate, and eleven non-solvated forms were identified. […] XRD of both wet and dry samples were scanned (FIG. 12A (dry sample)).
The slurry experiments identified 3 solvated forms from wet samples (Solvates 1, 2, and 3); 2 non-stoichiometric hydrates of Form 1 (Forms 12 and 13); and 11 non-solvated forms (Forms 1-11). In some instances, similar XRD scans with minor differences were obtained. These were considered to be part of the same class (e.g., the same form). For example, XRD scans of Form 2 and Form 2* were similar and were considered to belong to the same class. The solvated forms were obtained from wet sample analysis; after drying, the sample indicated a different XRD.
Solvate 1 was obtained from acetone at RT, and after drying, a low crystallinity solid was generated. Solvate 2 was obtained from acetone (at RT) and acetone/water (at RT), and after drying, Form 4** was generated. Solvate 3 was obtained from EtOH/water at RT, and after drying, Form 2 was generated.

[4] = slurry in Acetonitrile/water (5% water), 50° C.
[5] = slurry in DCM/water (5% water), 50° C.
[6] = slurry in DCM/water (5% water), RT
[7] = slurry in Heptane/water (5% water), 50° C.
[8] = slurry in Heptane/water (5% water), RT
[9] = slurry in IPAc/water (5% water), 50° C.
[10] = slurry in MA/water (5% water), RT
[11] = slurry in MIBK/water (5% water), 50° C.
[12] = slurry in MeOH/water (5% water), 50° C.
[13] = slurry in MtBE/water (5% water), 50° C.
[14] = slurry in Toluene/water (5% water), 50° C.
[15] = slurry in Toluene/water (5% water), RT
[16] = slurry in n-Butanol/water (5% water), 50° C.
[17] = slurry in n-Butanol/water (5% water), RT
[18] = slurry in n-Butyl acetate/water (5% water), 50° C.
[19] = slurry in n-Butyl acetate/water (5% water), RT

CC(C)CC(=O)Nc1cncc(-c2ccc3[nH]nc(-c4nc5c(-c6cccc(F)c6)cncc5[nH]4)c3c2)c1 [Form 13]
17%: water absorption (DVS scan) [1]
most stable: thermodynamic stability between forms (competitive slurry) [2]
Form 12: Form, Dry [3, 8] | Form, Dry [3, 19]
Form 1: Form, Dry [3, 5] | Form, Dry [3, 6] | Form, Dry [3, 7] | Form, Dry [3, 10] | Form, Dry [3, 11] | Form, Dry ([3]; slurry in MeOH, RT) | Form, Dry [3, 15] | Form, Dry [3, 16] | Form, Dry [3, 18] | Form, Dry ([3]; slurry in water, RT)
Form 13: Form, Dry [3, 4] | Form, Wet [3, 4] | Form, Dry ([3]; slurry in DCM, 50° C.) | Form, Wet ([3]; slurry in DCM, 50° C.) | Form, Wet [3, 5] | Form, Wet [3, 6] | Form, Dry ([3]; slurry in Heptane, 50° C.) | Form, Wet ([3]; slurry in Heptane, 50° C.) | Form, Wet [3, 7] | Form, Wet [3, 8] | Form, Dry [3, 9] | Form, Wet [3, 9] | Form, Wet [3, 10] | Form, Wet [3, 11] | Form, Wet ([3]; slurry in MeOH, RT) | Form, Dry [3, 12] | Form, Wet [3, 12] | Form, Dry [3, 13] | Form, Wet [3, 13] | Form, Dry [3, 14] | Form, Wet [3, 14] | Form, Wet [3, 15] | Form, Wet [3, 16] | Form, Dry [3, 17] | Form, Wet [3, 17] | Form, Wet [3, 18] | Form, Wet [3, 19] | Form, Dry ([3]; slurry in water, 50° C.) | Form, Wet ([3]; slurry in water, 50° C.) | Form, Wet ([3]; slurry in water, RT)
